From patent US5607926A, “Cephalosporin antibiotics” (Microcide Pharmaceuticals, Inc., priority 1995, dated 1997) come the findings set out here.

Format in all cases: cell-based
In test [1] the test system is S. aureus ATCC 29213. The test is described as follows: In vitro antibacterial evaluation, MIC by agar dilution, S. aureus ATCC 29213. The settings on record: Staphylococcus aureus, ATCC29213. The method, then:
(§1) The compounds of the invention were evaluated against several β-lactamresistant bacteria strains by determining the minimum inhibitory concentration (MIC, μg/ml) of each compound with respect to each strain. The MIC, the lowest concentration of antibiotic which inhibits growth of the test organism, was determined by the agar dilution method.
(§2) To determine the MIC for bacterial isolates, the test compound was incorporated in a series of two-fold dilutions into liquified Mueller-Hinton agar. Upon solidification, a number of different bacterial strains were spot inoculated with a replicating device onto the agar surface. […] The procedures used in these studies have been standardized by the National Committee for Clinical Laboratory Standards (NCCLS), as per the NCCLS publication entitled METHODS FOR DILUTION ANTIMICROBIAL SUSCEPTIBILITY TESTS (1991), which is incorporated herein by reference.
(§3) Aliquots of antimicrobial agents were prepared in phosphate buffered saline (PBS) at pH 7.2. Tween 20 or DMSO was used as a solubilizing vehicle as needed. Standard methods of vortexing, sonicating and gentle heat were used to facilitate solubilizing the test agent. Typically, the concentration of the stock solution was 10× that of the highest drug concentration tested. A 1.28 mg/mL stock solution was used with a subsequent highest working concentration of 128 μg/mL. Serial two-fold dilutions were done through ≤0.25 μg/mL. Each drug level was tested in duplicate. Two-fold drug dilutions were done in sterile 50 mL tubes with a final drug volume of 5 mL. Upon the addition of 45 mL of molten agar, a 10-fold dilution resulted. Two, 25 mL. plates were then poured into 15×150 mm square Petri plates with grids and allowed to harden.
(§4) A control plate with a reference drug, either cefotaxime, vancomycin or imipenem, was used as the positive growth control. Stock concentrations of reference antibiotics were prepared and frozen at -80° C. Upon preparation, the control plates were sealed and stored in the refrigerator for up to 1 week prior to use; however, imipenem control plates had to be prepared just prior to use. All test plates were used within 24 hours of preparation.
(§5) Satisfactory results were obtained where the inoculum contained about 10^4 colony forming units (cfu) ±0.5 logs. Starting with pure cultures of the test isolates on agar plates, a few isolated colonies were transferred to a tube of nutrient broth and allowed to grow 4-6 hours at 35°-36° C. to reach log-phase growth. Dropwise addition of the broth culture to PBS was done to match a 0.5 McFarland turbidity standard equal to 10^8 cfu/mL. This was further diluted ten-fold in PBS to reach a working inoculum concentration of 10^7 cfu/mL. When 1 μL of the working inoculum was applied to the agar surface a concentration of about 10^4 cfu per spot was obtained.
(§6) Disposable sterile 1 μL loops were used to inoculate test plates, with each isolate in a designated grid on the agar plate. An alternate method of inoculation involved the use of a replica plater, a device with 48 steel pins allowing the simultaneous inoculation of multiple isolates. After the spots had dried, the plates were incubated at 35°-36° C. for 16-20 hours. Endpoints were assessed as the minimum inhibitory concentration (MIC) of antimicrobial agent.
For orientation: Agar dilution tests growth on a series of plates holding different concentrations.

Test [2] relates to S. aureus 76 (Meth^R)(lac^+). The test is described as follows: In vitro antibacterial evaluation, MIC by agar dilution, S. aureus 76. The settings on record: Staphylococcus aureus, read-out: MIC. As to the method:
as §1, §2, §3, §4, §5, §6

Test [3] concerns S. aureus Col8A (Meth^S)(lac^-). The experiment in a line: In vitro antibacterial evaluation, MIC by agar dilution, S. aureus Col8A. The settings on record: Staphylococcus aureus. The method, then: as §1, §2, §3, §4, §5, §6
The novel agents of this invention are notable for their enhanced activity against S. aureus Col and Enterococci (E. faecium and E. faecalis). The S. aureus Col strain is a high-level PBP2a producer, whereas S. aureus Col 8A, its isogenic partner, lacks PBP2a. […] Thus, the compounds of the present invention are effective against PBP2a-producing bacteria.

Test [4] has as its system S. haemolyticus (Meth^R). The test is described as follows: In vitro antibacterial evaluation, MIC by agar dilution, S. haemolyticus. The settings on record: Staphylococcus haemolyticus, read-out: MIC. As to the method: as §1, §2, §3, §4, §5, §6
The test system of test [5] is E. faecium ATCC 35667. The test is described as follows: In vitro antibacterial evaluation, MIC by agar dilution, E. faecium ATCC 35667. The settings on record: Enterococcus faecium, ATCC35667, read-out: MIC. As to the method:
as §1, §2, §3, §4, §5, §6

In test [6] the test system is E. faecalis ATCC 29212. The experiment in a line: In vitro antibacterial evaluation, MIC by agar dilution, E. faecalis ATCC 29212. The settings on record: Enterococcus faecalis, ATCC29212; E. faecalis ATCC 29212; read-out: MIC. As to the method:
as §1, §2, §3, §4, §5, §6

For test [7], the system named is E. coli ATCC 25922. The test is described as follows: In vitro antibacterial evaluation, MIC by agar dilution, E. coli ATCC 25922. The settings on record: Escherichia coli, ATCC25922, read-out: MIC. As to the method: as §1, §2, §3, §4, §5, §6
Test [8] concerns P. aeruginosa ATCC 27853. The test is described as follows: In vitro antibacterial evaluation, MIC by agar dilution, P. aeruginosa ATCC 27853. The settings on record: Pseudomonas aeruginosa, ATCC27853, read-out: MIC. As to the method:
as §1, §2, §3, §4, §5, §6

Setting [9] is: S. aureus ATCC 29213, read-out: MIC.

Converted amounts (≈) assume the structure as drawn. Read-outs that look alike come from different tables or passages of the source. Bounds are passed on as bounds.

As a reminder, the MIC is the lowest concentration found to suppress growth.

In the case of `Nc1nc(/C(=N/OC2CCCC2)C(=O)N[C@@H]2C(=O)N3C(C(=O)O)=C(Sc4cccnc4-c4ccccc4)CS[C@H]23)cs1` [Cmpd 86, (7R)-7-[(Z)-2-(aminothiazol-4-yl)-2-(cyclopentyloxyimino)acetamido]-3-(2-phenylpyridin-3-ylthio)-3-cephem-4-carboxylic acid], the MIC is 1 µg/mL (≈ 1.61 µM) in test [1] (setting [9]); 16 µg/mL (≈ 25.7 µM) in test [2]; 1 µg/mL (≈ 1.61 µM) in test [3]; 16 µg/mL (≈ 25.7 µM) in test [4]; 2 µg/mL (≈ 3.21 µM) in test [5]; 4 µg/mL (≈ 6.42 µM) in test [6]. Further, the minimum inhibitory concentration (MIC) is 2 µg/mL (≈ 3.21 µM) in test [7] and 32 µg/mL (≈ 51.4 µM) in test [8].
As to `NCc1ccccc1CC(=O)N[C@@H]1C(=O)N2C(C(=O)O)=C(Sc3ccnn3-c3ccccc3)CS[C@H]12` [Cmpd 96, (7R)-7-[((2-aminomethylphenyl)acetyl)amino]-3-(1-N-phenylpyrazol-5-ylthio)-3-cephem-4-carboxylic acid], the MIC in test [1] (setting [9]) is 0.25 µg/mL (≈ 0.479 µM); in test [2], 16 µg/mL (≈ 30.7 µM); in test [3], 0.5 µg/mL (≈ 0.959 µM); in test [4], 16 µg/mL (≈ 30.7 µM); in test [5], 4 µg/mL (≈ 7.67 µM); in test [6], 1 µg/mL (≈ 1.92 µM). The MIC in test [7] and in test [8] was above 32 µg/mL throughout.
On to `O=C(Cc1ccccc1)N[C@@H]1C(=O)N2C(C(=O)O)=C(Sc3ccnn3-c3ccccn3)CS[C@H]12` [Cmpd 105, (7R)-7-[(Phenylacetyl)amino]-3-(1-N-(pyridin-2-yl)pyrazol-5-ylthio)-3-cephem-4-carboxylic acid], for which the MIC is 0.25 µg/mL (≈ 0.507 µM) in test [1]; 16 µg/mL (≈ 32.4 µM) in test [2]; 0.25 µg/mL (≈ 0.507 µM) in test [3]; 32 µg/mL (≈ 64.8 µM) in test [4]; 2 µg/mL (≈ 4.05 µM) in test [5]; 1 µg/mL (≈ 2.03 µM) in test [6]. The minimal inhibitory concentration (MIC) in test [7] and in test [8] was above 32 µg/mL in each case.
On to `CCCCCC(=O)N[C@@H]1C(=O)N2C(C(=O)O)=C(Sc3ccnn3-c3ccccc3)CS[C@H]12` [Cmpd 109, (7R)-7-[(hexanoyl)amino]-3-(1-N-phenylpyrazol-5-ylthio)-3-cephem-4-carboxylic acid], for which the minimum inhibitory concentration (MIC) in test [1] is 0.125 µg/mL (≈ 0.264 µM); in test [2], 16 µg/mL (≈ 33.9 µM); in test [3], 0.125 µg/mL (≈ 0.264 µM); in test [4] it was 32 µg/mL (≈ 67.7 µM); in test [5] it was 4 µg/mL (≈ 8.46 µM); in test [6], 4 µg/mL (≈ 8.46 µM). Also, the minimal inhibitory concentration (MIC) in test [7] and in test [8] was above 32 µg/mL in each case.
Regarding `O=C(Cc1ccco1)N[C@@H]1C(=O)N2C(C(=O)O)=C(Sc3ccnn3-c3ccccc3)CS[C@H]12` [Cmpd 111, (7R)-7-[(2-furylacetyl)amino]-3-(1-N-phenylpyrazol-5-ylthio)-3-cephem-4-carboxylic acid], the MIC came out at 0.5 µg/mL (≈ 1.04 µM) in test [1] (setting [9]); 16 µg/mL (≈ 33.2 µM) in test [2]; 0.25 µg/mL (≈ 0.518 µM) in test [3]; 32 µg/mL (≈ 66.3 µM) in test [4]; 4 µg/mL (≈ 8.29 µM) in test [5]; 4 µg/mL (≈ 8.29 µM) in test [6]. Moreover, the minimum inhibitory concentration (MIC) in test [7] and in test [8] was above 32 µg/mL each time.
In the case of `O=C(Cc1ccccc1)N[C@@H]1C(=O)N2C(C(=O)O)=C(Sc3ccnn3-c3cccc([N+](=O)[O-])c3)CS[C@H]12` [Cmpd 113, (7R)-7-[(Phenylacetyl)amino]-3-(1-N-(3-nitrophenyl)pyrazol-5-ylthio)-3-cephem-4-carboxylic acid], the MIC in test [1] was 0.125 µg/mL (≈ 0.233 µM); in test [2], 16 µg/mL (≈ 29.8 µM); in test [3] it was 0.125 µg/mL (≈ 0.233 µM); in test [4] it was above 32 µg/mL; in test [5], 4 µg/mL (≈ 7.44 µM); in test [6], 1 µg/mL (≈ 1.86 µM). Besides, the minimum inhibitory concentration (MIC) in test [7] and in test [8] was above 32 µg/mL each time.
With `COc1ccc(-n2nccc2SC2=C(C(=O)O)N3C(=O)[C@@H](NC(=O)Cc4ccccc4)[C@H]3SC2)cc1` [Cmpd 114, (7R)-7-[(Phenylacetyl)amino]-3-(1-N-(4-methoxyphenyl)pyrazol-5-ylthio)-3-cephem-4-carboxylic acid], the MIC turned out to be 0.25 µg/mL (≈ 0.478 µM) in test [1] (setting [9]); 16 µg/mL (≈ 30.6 µM) in test [2]; 0.125 µg/mL (≈ 0.239 µM) in test [3]; 32 µg/mL (≈ 61.2 µM) in test [4]; 2 µg/mL (≈ 3.83 µM) in test [5]; 1 µg/mL (≈ 1.91 µM) in test [6]. The MIC in test [7] and in test [8] was above 32 µg/mL in each case.
